Source: ChEMBL document CHEMBL4354883, “Design, Synthesis, and Biological Evaluation of HSP90 Inhibitor-SN38 Conjugates for Targeted Drug Accumulation” (J Med Chem, 2020)
Activity calls are given as the source filed them. The calls are words filed in the database; no cut-off is given here.

How the values were obtained:
[1] = Half life of compound in PBS buffer at pH 6.0 at 50 uM by HPLC analysis; type: physicochemical
[2] = Half life of compound in PBS buffer at pH 7.4 at 50 uM by HPLC analysis; type: physicochemical
[3] = Half life in mouse plasma at 25 uM by HPLC analysis; type: ADME, cell-free
[4] = Half life in human plasma at 25 uM by HPLC analysis; type: ADME, cell-free
[5] = target: Heat shock protein HSP 90-alpha (Homo sapiens, UniProt P07900); assay: biochemical
Description: Inhibition of recombinant human full length HSP90 alpha expressed in Escherichia coli cells after 1 hr by fluorescence polarization assay

[6] = Drug uptake in human A549 cells assessed as blue shift in absorption spectrum at 5 uM by UV-visible absorption spectral analysis; type: ADME, cell-based; conditions: a549, 5 µM
[7] = Drug uptake in human A549 cells assessed as maximum emission peaks at 430 nm at 5 uM by fluorescence emission spectral analysis; type: ADME, cell-based; conditions: a549, 5 µM
[8] = Drug uptake in human A549 cells assessed as blue fluorescence at 5 uM after 12 hrs by confocal laser scanning microscopic analysis; type: ADME, cell-based; conditions: a549, 12 h
[9] = tested on: A549; assay: Antiproliferative activity against human A549 cells assessed as reduction in cell viability after 72 hrs by SRB assay; type: functional, cell-based; conditions: A549, 72 h
[10] = tested on: HCT-116; assay: Antiproliferative activity against human HCT116 cells assessed as reduction in cell viability after 72 hrs by SRB assay; type: functional, cell-based; conditions: HCT-116, 72 h
[11] = tested on: MIA PaCa-2; assay: Antiproliferative activity against human MIAPaCa2 cells assessed as reduction in cell viability after 72 hrs by SRB assay; type: functional, cell-based; conditions: MIA PaCa-2, 72 h
[12] = tested on: CAPAN-1; assay: Antiproliferative activity against human Capan1 cells assessed as reduction in cell viability after 72 hrs by SRB assay; type: functional, cell-based; conditions: CAPAN-1, 72 h
[13] = tested on: L02; assay: Cytotoxicity agains human HL7702 cells assessed as reduction in cell viability after 72 hrs by SRB assay; type: cell-based; conditions: L02, 72 h
[14] = tested on: A549; assay: Induction of cell cycle arrest in human A549 cells at 3 to 10 nM after 24 hrs by RNase A/PI-staining based flow cytometric analysis; type: functional
[15] = tested on: HCT-116; assay: Induction of cell cycle arrest in human HCT116 cells at 3 nM after 24 hrs by RNase A/PI-staining based flow cytometric analysis; type: functional
[16] = tested on: CAPAN-1; assay: Induction of cell cycle arrest in human Capan1 cells at 3 nM after 24 hrs by RNase A/PI-staining based flow cytometric analysis; type: functional
[17] = tested on: A549; assay: Downregulation of TOP1 expression in human A549 cells at 0.04 uM after 24 hrs by Western blot analysis; type: functional, cell-based
[18] = tested on: HCT-116; assay: Downregulation of TOP1 expression in human HCT116 cells at 0.04 uM after 24 hrs by Western blot analysis; type: functional, cell-based
[19] = tested on: HCT-116; assay: Antitumor activity against human HCT116 cells xenografted in mouse assessed as reduction in tumor volume at 50 mg/kg, iv for 5 consecutive days per week and measured every 3 to 4 days up to 14 days by microcaliper analysis relative to control; type: functional
[20] = tested on: CAPAN-1; assay: Antitumor activity against human Capan1 cells xenografted in mouse assessed as reduction in tumor volume at 28 mg/kg, iv for every 2 days and measured twice per week by microcaliper method relative to control; type: functional
[21] = tested on: A549; conditions: Homo sapiens, 0.2 uM
Description: Downregulation of TOP1 expression in human A549 cells at 0.2 uM after 24 hrs by Western blot analysis

[22] = tested on: HCT-116; conditions: Homo sapiens, 0.2 uM
Description: Downregulation of TOP1 expression in human HCT116 cells at 0.2 uM after 24 hrs by Western blot analysis

[23] = tested on: CAPAN-1; conditions: Homo sapiens, 28 mg/kg
Description: Antitumor activity against human Capan1 cells xenografted in mouse assessed as reduction in tumor weight at 28 mg/kg, iv for every 2 days and measured twice per week by caliper method

[24] = species: Mus musculus; conditions: 28 mg/kg
Description: In vivo inhibition of HSP90 in mouse xenografted with human Capan1 cells assessed as increase in HSP70 protein expression at 28 mg/kg, iv for every 2 days measured at 2 hrs post last dose by Western blot analysis

[25] = species: Mus musculus; conditions: 28 mg/kg; remark: listed apart in the source
Description: In vivo inhibition of HSP90 in mouse xenografted with human Capan1 cells assessed as decrease in AKT protein expression at 28 mg/kg, iv for every 2 days measured at 2 hrs post last dose by Western blot analysis

SMILES: CCc1c2c(nc3ccc(OC(=O)N4CCC(NC(=O)CNc5cc(-n6nc(C(F)(F)F)c7c6CC(C)(C)CC7=O)ccc5C(N)=O)CC4)cc13)-c1cc3c(c(=O)n1C2)COC(=O)[C@]3(O)CC
- half-life at 50 µM [1]: > 24 h
- half-life at 50 µM [2]: > 24 h
- half-life at 25 µM [3]: > 24 h
- half-life at 25 µM [4]: > 24 h
- IC50 [5]: 1260 nM

SMILES: CCc1c2c(nc3ccc(O)cc13)-c1cc3c(c(=O)n1C2)COC(=O)[C@]3(O)CC [7-ETHYL-10-HYDROXYCAMPTOTHECIN]
- Drug uptake [6]: Active
- Drug uptake [7]: Active
- Drug uptake [8]: Active
- IC50 [9]: 11 nM
- IC50 [10]: 4 nM
- IC50 [11]: 13 nM
- IC50 [12]: 8 nM
- IC50 [13]: 18 nM
- Activity [14]: Active
- Activity [15]: Active
- Activity [16]: Active
- inhibition [17]: Active
- inhibition [18]: Active

SMILES: CCNC(=O)c1noc(-c2cc(C(C)C)c(O)cc2O)c1-c1ccc(CN2CCOCC2)cc1 [LUMINESPIB]
- IC50 [9]: 39 nM
- IC50 [10]: 121 nM
- IC50 [11]: 38 nM
- IC50 [12]: 657 nM
- IC50 [13]: 1360 nM
- T/C [19]: 49.9%
- T/C [20]: 57.03%
- inhibition [21]: Active
- inhibition [22]: Active
- inhibition [23]: Active
- inhibition [24]: Active
- inhibition [25]: Active
